From publication PMC5823406, “Vehicle development, pharmacokinetics and toxicity of the anti-invasive agent 4-fluoro-3’,4’,5’-trimethoxychalcone in rodents” (PLoS ONE, 2018)

Test: Half-life in PBS, simulated gastric fluid and simulated intestinal fluid
Format: physicochemical
Conditions: 1 μM
Source text: Table 3 In vitro physicochemical, stability and metabolism data. | column: Value

Compound: COc1cc(C(=O)/C=C/c2ccc(F)cc2)cc(OC)c1OC [C16, 4-fluoro-3’,4’,5’-trimethoxychalcone]
- half-life (PBS, pH 7.4): >4 h
- half-life (simulated gastric fluid): >1 h
- half-life (simulated intestinal fluid): >4 h
